Reference: patent US8748598B2, “Analogs of 3-O-acetyl-11-keto-beta-boswellic acid” (Laila Nutraceuticals, priority 2004, dated 2014)
Values after ≈ are worked out from the molar mass of the structure shown. Read-outs that look alike come from different tables or passages of the source.

Columns and labels:
Jurkat = format: cell-based, human; set-up: minimum inhibitory concentration (MIC) Jurkat: unit not given here; settings: for minimum inhibitory concentration (MIC) Jurkat: MTT assay
Method: (§1) MTT [3-(4,5-dimethylthiazol-2-yl)-2,5-diphenyltetrazolium bromide] incorporation based cell proliferation assay was performed as described previously (Reference). The cytotoxic efficacy of some analogs was evaluated in different cell lines by MTT cell proliferation assay kit (Roche Applied Sciences, Germany). The assay was carried out according to the instruction provided by the vendor. Briefly, in brief, equal numbers of cells was plated in 96-well flat-bottomed plates in 100 μl of medium and were exposed to different analogs selected from 1 to 63 at various concentrations up to 10 μg/ml for a period of three days. Vehicle control culture wells received only a maximum of 0.5% DMSO. Thereafter, 0.5 mg/ml of MTT reagent was added to each well and the microplate was incubated further for 4 h at 37° C. in presence of 5% CO2. Finally, the cells were solubilized by adding solubilizing solution and allowed to incubate at 37° C. overnight. After complete solubilization of the formazan crystals the absorbance was read at 540 nm in a microplate reader (BioRad, USA). The results (mean OD±SD) obtained from quadruplicate wells were used in calculation to determine the inhibition of cell proliferation (50% of inhibitory concentration, IC50) of the test compounds.
(§2) The cytotoxic properties of some analogs were evaluated by MTT incorporation assay. The methodology of the assay procedure was the same as mentioned in example 41.

PC3M = assay: Cytotoxicity MTT assay, PC3M; format: cell-based, human; set-up: minimum inhibitory concentration (MIC) PC3M: unit not given here; settings: for minimum inhibitory concentration (MIC) PC3M: MTT assay
HePG2 = assay: Cytotoxicity MTT assay, HePG2; format: cell-based, human; set-up: unit not given here
Method: as §1, §2

MDA-MB-231 = assay: MTT cell proliferation assay, MDA-MB-231; format: cell-based, human; settings: for Inhibition of cell proliferation MDA-MB-231 (IC50): three days
Method: as §1, §2

MCF-7 = assay: MTT cell proliferation assay, MCF-7; format: cell-based, human; settings: for Inhibition of cell proliferation MCF-7 (IC50): three days
Method: as §1, §2

potato 5-lipoxygenase = assay: 5-Lipoxygenase enzyme inhibitory activity; format: biochemical
Method: 5-Lipoxygenase enzyme inhibitory activity was measured using the method of Schewe et al. (Adv Enzymol, Vol 58, 191-272, 1986), modified by Reddanna et. al., (Methods of Enzymology, Vol 187, 268-277, 1990). The assay mixture contained 80 μM linoleic acid and sufficient amount of potato 5-lipoxygenase in 50 mM phosphate buffer (pH 6.3). The reaction was initiated by the addition of enzyme buffer mix to linoleic acid and the enzyme activity was monitored as the increase in absorbance at 234 nm. The reaction was monitored for 120 sec and the inhibitory potential of the test substances (29, 31, 33, 34, 35, 36, 39, 40, 43, 44, 46, 47, 48, 49, 50, 54, 57, 59, 62 & 63) was measured by incubating various concentrations of test substances two minutes before the addition of linoleic acid. All assays were performed three times. Percentage inhibition was calculated by comparing the slope of the curve obtained for test substances with that of the control.

A549 = assay: MTT cell proliferation assay, A549; format: cell-based, human; settings: Table 2; for Inhibition of cell proliferation A549 (IC50): three days
Method: as §1

B16 = assay: MTT cell proliferation assay, B16; format: cell-based, mouse; settings: Table 2; for Inhibition of cell proliferation B16 (IC50): three days
Method: as §1

A375 = assay: MTT cell proliferation assay, A375; format: cell-based, human; settings: Table 2; three days
Method: as §1

[1] = system: B16 F0 melanoma xenograft; assay: B16 F0 melanoma xenograft model; format: in vivo, C57B6J mice; settings: 75 mg/kg daily intra-peritoneal, twelve days
Method: In vivo efficacy of LI-51255 against melanoma growth was evaluated in B16 F0 melanoma xenograft model of C57B6J mice. C57B6J mice of 6 weeks age (body weight 18-22 g) were purchased from National Institute of Nutrition (NIN), Hyderabad (India). Animals study protocols were approved by Institutional Ethics Committee (IAEC). All the studies were performed in compliance with the Committee for the Purpose of Control and Supervision of Experiments on Animals (CPCSEA) guidelines and OECD guidelines. Animals were allowed free access to standard feed and provided charcoal filtered and UV exposed water ad libitum. The animals were maintained at a controlled temperature (24-26° C.), humidity (45-70%), and 12 h/12 h of light/dark cycle.
To induce the melanoma tumor formation, sub-confluent B16F0 cells were harvested by brief trypsinization and 1×10^6 cells were injected subcutaneously in 0.2 mL phosphate-buffered saline. Drug treatment was started after development of palpable tumors (3-5 days after implantation of the cells). Drugs were prepared in phosphate-buffered saline (10% DMSO, v/v) and either 75 mg/kg of DTIC or different doses of LI-51255 (10 or 20 mg/kg) was administered daily through intra-peritoneal route. Vehicle treated control animals received only 10% DMSO in phosphate buffered saline. After twelve days of treatment, the animals were sacrificed by CO2 inhalation and tumors were excised and weighed.

| Structure (SMILES) | minimum inhibitory concentration (MIC) Jurkat (Jurkat) | minimum inhibitory concentration (MIC) PC3M (PC3M) | minimum inhibitory concentration (MIC) HePG2 (HePG2) | IC50 values MCF-7 (MCF-7; Table 4) | % inhibition at 10 μg/ml (potato 5-lipoxygenase) [%] | % inhibition at 25 μg/ml (potato 5-lipoxygenase) [%] | Inhibition of cell proliferation B16 (IC50) (B16) [µg/mL] | Inhibition of cell proliferation MDA-MB-231 (IC50) (MDA-MB-231; Table 2) [µg/mL] | Inhibition of cell proliferation MCF-7 (IC50) (MCF-7; Table 2) [µg/mL] | Inhibition of cell proliferation A549 (IC50) (A549) [µg/mL] | Inhibition of cell proliferation A375 (IC50) (A375) [µg/mL] | also measured |
| --- | --- | --- | --- | --- | --- | --- | --- | --- | --- | --- | --- | --- |
| COc1cc(C(=O)O[C@@H]2CC[C@@]3(C)C(CC[C@]4(C)C3C(=O)C=C3C5[C@@H](C)[C@H](C)CC[C@]5(C)CC[C@]34C)[C@@]2(C)C(=O)O)cc(O)c1O (stereo partly shown) [Analog 3] | 125 | 30 | 150 |  |  |  |  |  |  |  |  | cytotoxicity against PC3M (PC3M): significantly more potent |
| C[C@H](N)C(=O)O[C@@H]1CC[C@@]2(C)C(CC[C@]3(C)C2C(=O)C=C2C4[C@@H](C)[C@H](C)CC[C@]4(C)CC[C@]23C)[C@@]1(C)C(=O)O (stereo partly shown) [Analog 11] | 50 | 30 | 100-150 |  |  |  |  |  |  |  |  | IC50 (MDA-MB-231; Homo sapiens, MDA-MB-231, Table 4): 28.9 µg/mL (≈ 53.4 µM); IC50 (MCF-7; Homo sapiens, MCF7, Table 4): 33.3 µg/mL (≈ 61.5 µM) |
| CC(=O)OC1CC[C@@]2(C)C(CC[C@]3(C)C2C(=O)C=C2C4[C@@H](C)[C@H](C)CC[C@]4(C)CC[C@]23C)[C@@]1(C)C(N)=O (stereo partly shown) [Analog 19] | 10 | >150 | >150 | IC50 at 30.05 μg/ml |  |  |  |  |  |  |  | Percentage Inhibition of cell proliferation MDA-MB-231 (MDA-MB-231; Table 4, 10 μg/ml): 38.72% at 10 μg/ml; cytotoxicity against leukemia cells (Jurkat): highly potent selectively |
| CC(=O)O[C@@H]1CC[C@@]2(C)C(CC[C@]3(C)C2C(=O)C=C2C4[C@@H](C)[C@H](C)CC[C@]4(C)CC[C@]23C)[C@@]1(C)C(=O)NN (stereo partly shown) [Analog 20] | 50 | 10 | 40 |  |  |  |  |  |  |  |  | inhibition at 10 µg/mL (MCF-7; Homo sapiens, MCF7, Table 4, 10 μg/ml, read-out: Percentage Inhibition of cell proliferation MCF-7): 44%; cytotoxicity against PC3M (PC3M): significantly more potent |
| CC(=O)O[C@@H]1CC[C@@]2(C)C(CC[C@]3(C)C2C(=O)C=C2C4[C@@H](C)[C@H](C)CC[C@]4(C)CC[C@]23C)[C@@]1(C)C(=O)N(C)C (stereo partly shown) [Analog 31] |  |  |  |  | 18.57 | 36.73 |  |  |  |  |  | inhibition at 10 µg/mL (MDA-MB-231; Homo sapiens, MDA-MB-231, Table 2, 10 ug/ml, read-out: Inhibition of cell proliferation MDA-MB-231, % at 10 ug/ml): 46%; inhibition at 10 µg/mL (MDA-MB-231; Homo sapiens, MDA-MB-231, Table 4, 10 μg/ml, read-out: Percentage Inhibition of cell proliferation MDA-MB-231): 46%; inhibition at 10 µg/mL (A549; Homo sapiens, A549, 10 ug/ml): 17%; inhibition at 10 µg/mL (B16; Mus musculus, B16, 10 ug/ml): 10% |
| CC(=O)O[C@@H]1CC[C@@]2(C)C(CC[C@]3(C)C2C(=O)C=C2C4[C@@H](C)[C@H](C)CC[C@]4(C)CC[C@]23C)[C@@]1(C)C(=O)NCCCCCCN (stereo partly shown) [Analog 33] |  |  |  |  | 24.66 | 52.98 | 9.1 |  |  |  |  | Inhibition of cell proliferation MCF-7, % at 10 ug/ml (MCF-7; Table 2, 10 ug/ml): 36% at 10; Percentage Inhibition of cell proliferation MCF-7 (MCF-7; Table 4, 10 μg/ml): 36% at 10 μg/ml; Inhibition of cell proliferation A549, % at 10 ug/ml (A549; 10 ug/ml): 24% at 10 |
| CC(=O)O[C@@H]1CC[C@@]2(C)C(CC[C@]3(C)C2C(=O)C=C2C4[C@@H](C)[C@H](C)CC[C@]4(C)CC[C@]23C)[C@@]1(C)C(=O)NCCCCN (stereo partly shown) [Analog 34] |  |  |  | IC50 at 13.7 μg/ml | 16.31 | 29.40 | 3.84 | 6.38 | 13.7 | 10.5 | 4.12 | IC50 values MDA-MB-231 (MDA-MB-231; Table 4): IC50 at 6.38 μg/ml |
| CC(=O)O[C@@H]1CC[C@@]2(C)C(CC[C@]3(C)C2C(=O)C=C2C4[C@@H](C)[C@H](C)CC[C@]4(C)CC[C@]23C)[C@@]1(C)C(=O)NCCCCCCCN (stereo partly shown) [Analog 35] |  |  |  | IC50 at 9.7 μg/ml | 24.92 | 52.48 | 2.82 | 5.14 | 9.7 | 5.86 | 2.76 | IC50 values MDA-MB-231 (MDA-MB-231; Table 4): IC50 at 5.14 μg/ml |
| C[C@@H]1CC[C@]2(C)CC[C@]3(C)C(=CC(=O)C4[C@@]5(C)CC[C@@H](O)[C@](C)(C(=O)N6CCOCC6)C5CC[C@]43C)C2[C@H]1C (stereo partly shown) [Analog 36] |  |  |  | IC50 at 8.7 μg/ml | 17.83 | 34.40 | 2.44 | 3.4 | 8.7 | 4.78 | 2.75 | IC50 values MDA-MB-231 (MDA-MB-231; Table 4): IC50 at 3.4 μg/ml |
| CC(=O)O[C@@H]1CC[C@@]2(C)C(CC[C@]3(C)C2C(=O)C=C2C4[C@@H](C)[C@H](C)CC[C@]4(C)CC[C@]23C)[C@@]1(C)C(=O)NCCNC=O (stereo partly shown) [Analog 48] |  |  |  |  | 22.78 | 54.18 | 4.35 | 4.98 | 12.5 | 6.83 | 3.53 | Percentage Inhibition of cell proliferation MDA-MB-231 (MDA-MB-231; Table 4, 10 μg/ml): 8.8% at 10 μg/ml |
| CN(C)/N=N/c1[nH]cnc1C(N)=O [DTIC, Dacarbazine, reference compound] |  |  |  |  |  |  |  |  |  |  |  | % reduction of tumor burden (w.r.t control) [1]: 33.613%; Average weight of tumor [1]: 4.175 gm; % reduction of tumor burden (w.r.t control) ([1]; listed as Dacarbazine): 33.6% |
